{"source": "patent US9556417B2", "about": "“Reprogramming of cells to a new fate” (The Scripps Research Institute, priority 2010, dated 2017)", "key": {"Wnt/β-catenin pathway": {"tested_on": "Wnt/β-catenin pathway", "details": "cited from earlier work"}, "[1]": {"tested_on": "tail-tip fibroblasts (TTFs)", "experiment": "Neural transdifferentiation of TTFs in presence of JAK inhibitor", "type": "cell-based, mouse", "details": "JAK inhibitor 1 0.5 μM from day 4 onward", "experimental": "For TTF reprogramming, Lentivirus supernatants were produced and harvested as previously described (Takahashi K. et al. Cell 131(5):861-872 (2007)). Briefly, 293T cells (Invitrogen) were plated at 5×10^6 cells per 100 mm dish and incubated overnight in a 37° C. incubator. Cells were transfected with 4 μg pHAGE2-TetOminiCMV-STEMCCA (29) or FUW-M2rtTA (Addgene) along with packaging mix (1 μg psPAX2 and 3 μg pMD2.G) (Addgene) and FuGENE 6 Transfection Reagent (Roche), according to the manufacturer's instructions. The cells were then cultured in a 32° C. degree incubator, after which supernatants were collected at 48 and 72 hours (post-transfection) and filtered through a 0.45 μm filter (Millipore) before use. TTFs were prepared as previously described (Takahashi, K., et al., Cell 126(4):663-676 (2006)). Briefly, tails (only the final third) were cut into small pieces (less than 0.5 cm) and grown on gelatine-coated plates in MEF medium. Cells that migrated out of the tissue were transferred into new dish and used after one more passage (p3). After two rounds of transduction with STEMCCA and rtTA expressing virus, cells were plated on Geltrex-coated dishes at 2×10^4 cells/cm^2 and reprogrammed as described above. JAK inhibitor 1 (Calbiochem) was added from day 4 onward at 0.5 μM during TTF transdifferentiation. […]"}, "Brachyury-EGFP ES cell": {"tested_on": "Brachyury-EGFP ES cell", "experiment": "FACS analysis of mesodermal markers (Brachyury-GFP, Flk-1)", "type": "cell-based, mouse", "details": "treated day 0-2, harvested day 4.5", "experimental": "To ascertain what role calcium and cAMP might be playing in this early stage of cardiac differentiation, FACS was carried out using two markers involved in mesodermal fates. Specifically, a Brachyury-EGFP ES cell (a gift from the Keller lab) was used to identify cells progressing to a primitive streak type population. Further, cells were stained using a Flk-1 antibody to further delineate axial location of the primitive streak type cells. Briefly, cells were treated with small molecules for day 0-2, and harvested at day 4.5 for analysis.\nCells were harvested into a single cell suspension by treatment with 0.05% trypsin, quenched with serum containing medium, and resuspended in FACS buffer: lx PBS (Ca/Mg^2+ free), 1 mM EDTA, 25 mM HEPES pH 7.0, 1% Fetal Bovine Serum. Cells were then filtered with […], and stored at 4° C. until analysis."}, "R1 ES cells": {"tested_on": "R1 ES cells", "experiment": "Serum-free monolayer cardiac differentiation of ES cells, beating colonies", "type": "cell-based, mouse", "details": "early treatment window", "experimental": "Having identified the first serum-free monolayer condition for cardiac differentiation of ES cells, we sought to test its efficacy as a platform to discover regulators of cardiomyogenesis. A collection of approximately 200 small molecules and growth factors reported to be influential in developmental processes were assembled. R1 ES cells were grown and plated for differentiation on Matrigel in 24-well plates using the media and growth factors described above. The screening collection was then added and removed from each well at specific time points in order to account for different developmental time windows. The collection was screened at days 0-2, 2-5, and 5-7.\nCells are plated at a density of 200,000 cells/well of a 6-well plate in 2.5 ml of ESGM. 6-well plates are coated overnight at 4° C. with 1 ml of Matrigel (BD Bioscience) diluted 50× from stock concentration. 24 hours after plating, or after sufficient colony size was achieved, cells are switched into chemically defined medium (CDM) and treated with 4 uM BIO (Calbiochem) and 20 ng/ml BMP-4 (R&D). CDM contains RPMI 1640, 0.5×N2, 1×B27 (without Vitamin A), 0.5× Glutamax, 0.55 mM beta-mercaptoethanol, 1× non-essential amino acids, 1× nucleosides. At Day 2, medium is changed, and again CDM containing 4 uM BIO with 20 ng/ml BMP-4 is added to the cells. At Day 5, cells are washed once with PBS and medium is changed to CDM containing 100 ng/ml Dkk-1 (R&D). At Day 7, medium is changed, and again CDM containing 100 ng/ml Dkk-1 is added to the cells. At Day 10, cells are trypsinized (0.05% trypsin) (Approximately 5 minutes at 37° C., or until cells begin to detach) and replated onto gelatin coated 6-well plates in CDM with no additional growth factors. By this time, the cells will have formed tight colonies that will be difficult to disrupt (Supplementary FIG. 2b). […] The trypsin is used primarily to detach the cells rather than to dissociate them to a single cell suspension. It is preferable for the colonies to remain intact. The trypsin is briefly quenched with MEF media, cells are centrifuged, and resuspended in CDM for plating. Medium is refreshed as needed to remove dead cells and debris (every 1 to 2 days)."}}}
{"smiles": "Cc1ccc2nc(NC(=O)CSc3nc4c(c(=O)n3-c3ccccc3)SCC4)sc2c1", "note": "[IWP-2, 2-(3,4,6,7-tetrahydro-4-oxo-3-phenylthieno[3,2-d]pyrimidin-2-ylthio)-N-(6-methylbenzo[d]thiazol-2-yl)acetamide]", "values": [{"measurement": "IC50", "setting": "Wnt/β-catenin pathway", "value": 27, "unit": "nM"}]}
{"smiles": "CC(C)(C)c1nc2c3ccc(F)cc3c3c(=O)[nH]ccc3c2[nH]1", "note": "[JAK inhibitor1]", "values": [{"measurement": "Pax6 expression of colonies", "setting": "[1]", "value": "all remaining colonies homogeneously expressed Pax6"}, {"measurement": "decrease in number of colonies", "setting": "[1]", "value": "around 30%"}]}
{"smiles": "CC(C)NCC(O)COc1cccc2ccccc12", "note": "(centres unmarked) [propranolol]", "values": [{"measurement": "Flk-1 positive portion of GFP+ cells", "setting": "Brachyury-EGFP ES cell", "value": "decreased"}, {"measurement": "cardiac differentiation / percentage of beating colonies", "setting": "R1 ES cells", "value": "greatly decreased cardiac potential"}]}
